Measured values reported in ChEMBL document CHEMBL6078666, “Discovery of Novel Coumarin Pleuromutilin Derivatives as Potent Anti-MRSA Agents” (J Med Chem, 2024).
≈ marks a conversion by molar mass, not a printed value.

Legend:
Type in all cases: functional
Staphylococcus aureus [1] = test: Antibacterial activity against methicillin-resistant Staphylococcus aureus ATCC 33591 assessed as bacterial growth inhibition measured after 20 hrs by broth dilution method
Staphylococcus aureus [2] = test: Antibacterial activity against methicillin-resistant Staphylococcus aureus ATCC 43300 assessed as bacterial growth inhibition measured after 20 hrs by broth dilution method
[3] = tested on: Staphylococcus epidermidis; test: Antibacterial activity against Staphylococcus epidermidis ATCC 51625 assessed as bacterial growth inhibition measured after 20 hrs by broth dilution method
Enterococcus faecium [4] = test: Antibacterial activity against vancomycin-resistant Enterococcus faecium ATCC 51559 assessed as bacterial growth inhibition measured after 20 hrs by broth dilution method
Enterococcus faecium [5] = test: Antibacterial activity against vancomycin-resistant Enterococcus faecium ATCC 700221 assessed as bacterial growth inhibition measured after 20 hrs by broth dilution method
Streptococcus pneumoniae [6] = test: Antibacterial activity against penicillin-resistant Streptococcus pneumoniae ATCC 51916 assessed as bacterial growth inhibition measured after 20 hrs by broth dilution method
Streptococcus pneumoniae [7] = test: Antibacterial activity against penicillin-intermediate Streptococcus pneumoniae ATCC 49619 assessed as bacterial growth inhibition measured after 20 hrs by broth dilution method
Staphylococcus aureus [8] = test: Ratio of MBC to MIC against methicillin-resistant Staphylococcus aureus ATCC 33591
Staphylococcus aureus [9] = test: Ratio of MBC to MIC against Staphylococcus aureus ATCC 43300
[10] = tested on: Staphylococcus epidermidis; test: Ratio of MBC to MIC against Staphylococcus epidermidis ATCC 51625
Enterococcus faecium [11] = test: Ratio of MBC to MIC against vancomycin-resistant Enterococcus faecium ATCC 51559
Enterococcus faecium [12] = test: Ratio of MBC to MIC against vancomycin-resistant Enterococcus faecium ATCC 700221
Streptococcus pneumoniae [13] = test: Ratio of MBC to MIC against penicillin-intermediate Streptococcus pneumoniae ATCC 49619
Streptococcus pneumoniae [14] = test: Ratio of MBC to MIC against penicillin-resistant Streptococcus pneumoniae ATCC 51916
Staphylococcus aureus [15] = test: Antibacterial activity against methicillin-resistant Staphylococcus aureus clinical isolate 202311772 assessed as bacterial growth inhibition measured after 20 hrs by broth dilution method
Staphylococcus aureus [16] = test: Antibacterial activity against methicillin-resistant Staphylococcus aureus clinical isolate 202313160 assessed as bacterial growth inhibition measured after 20 hrs by broth dilution method
Staphylococcus aureus [17] = test: Antibacterial activity against methicillin-resistant Staphylococcus aureus clinical isolate 202405157 assessed as bacterial growth inhibition measured after 20 hrs by broth dilution method
[18] = tested on: Staphylococcus epidermidis; test: Antibacterial activity against methicillin-resistant Staphylococcus epidermidis clinical isolate 202409454 assessed as bacterial growth inhibition measured after 20 hrs by broth dilution method
[19] = tested on: Staphylococcus epidermidis; test: Antibacterial activity against methicillin-resistant Staphylococcus epidermidis clinical isolate 202409139 assessed as bacterial growth inhibition measured after 20 hrs by broth dilution method
Enterococcus faecium [20] = test: Antibacterial activity against vancomycin-resistant Enterococcus faecium clinical isolate 202308456 assessed as bacterial growth inhibition measured after 20 hrs by broth dilution method
Staphylococcus aureus [21] = test: Ratio of MBC to MIC against methicillin-resistant Staphylococcus aureus clinical isolate 202311772
[22] = tested on: Staphylococcus epidermidis; test: Ratio of MBC to MIC against methicillin-resistant Staphylococcus epidermidis clinical isolate 202409454
Enterococcus faecium [23] = test: Ratio of MBC to MIC against vancomycin-resistant Enterococcus faecium clinical isolate 202308456

Compound	MIC (Staphylococcus aureus [1]) [µg/mL]	MIC (Staphylococcus aureus [2]) [µg/mL]	MIC [3] [µg/mL]	MIC (Enterococcus faecium [4]) [µg/mL]	MIC (Enterococcus faecium [5]) [µg/mL]	MIC (Streptococcus pneumoniae [6]) [µg/mL]	MIC (Streptococcus pneumoniae [7]) [µg/mL]	Ratio (Staphylococcus aureus [9])	Ratio [10]	Ratio (Enterococcus faecium [11])	Ratio (Enterococcus faecium [12])	Ratio (Streptococcus pneumoniae [13])	Ratio (Streptococcus pneumoniae [14])	other results
C=C[C@]1(C)C[C@@H](OC(=O)CSc2cc(=O)oc3ccc(OC)cc23)[C@]2(C)[C@H](C)CC[C@]3(CCC(=O)[C@H]32)[C@@H](C)[C@@H]1O	0.125 (≈ 0.22 µM)	0.125 (≈ 0.22 µM)	0.063 (≈ 0.111 µM)	0.125 (≈ 0.22 µM)	0.063 (≈ 0.111 µM)	0.125 (≈ 0.22 µM)	0.125 (≈ 0.22 µM)	2	>4	2	>4	>4		Ratio (Staphylococcus aureus [8]): 4
C=C[C@]1(C)C[C@@H](OC(=O)CSCCOc2cc(=O)oc3cc(C)ccc23)[C@]2(C)[C@H](C)CC[C@]3(CCC(=O)[C@H]32)[C@@H](C)[C@@H]1O	0.125 (≈ 0.209 µM)	0.25 (≈ 0.419 µM)	0.063 (≈ 0.106 µM)	0.25 (≈ 0.419 µM)	0.125 (≈ 0.209 µM)	0.25 (≈ 0.419 µM)	0.125 (≈ 0.209 µM)	>4	4	1	2	2	4	
C=C[C@]1(C)C[C@@H](OC(=O)CSCCOc2cc(=O)oc3ccc(Cl)cc23)[C@]2(C)[C@H](C)CC[C@]3(CCC(=O)[C@H]32)[C@@H](C)[C@@H]1O	0.5 (≈ 0.81 µM)	0.5 (≈ 0.81 µM)	0.125 (≈ 0.203 µM)	1 (≈ 1.62 µM)	1 (≈ 1.62 µM)	2 (≈ 3.24 µM)	4 (≈ 6.48 µM)	>4	>4	>4	>4	>4		
C=C[C@]1(C)C[C@@H](OC(=O)CSc2cc(=O)oc3ccc(Cl)cc23)[C@]2(C)[C@H](C)CC[C@]3(CCC(=O)[C@H]32)[C@@H](C)[C@@H]1O	0.125 (≈ 0.218 µM)	0.25 (≈ 0.436 µM)	0.063 (≈ 0.11 µM)	0.5 (≈ 0.872 µM)	0.125 (≈ 0.218 µM)	0.125 (≈ 0.218 µM)	0.125 (≈ 0.218 µM)	>4	>4	2	>4	2	4	
C=C[C@]1(C)C[C@@H](OC(=O)CSc2cc(=O)oc3ccc(Br)cc23)[C@]2(C)[C@H](C)CC[C@]3(CCC(=O)[C@H]32)[C@@H](C)[C@@H]1O	0.125 (≈ 0.202 µM)	0.25 (≈ 0.405 µM)	0.063 (≈ 0.102 µM)	0.25 (≈ 0.405 µM)	0.25 (≈ 0.405 µM)	0.063 (≈ 0.102 µM)	0.25 (≈ 0.405 µM)	>4	>4	>4	>4	2	>4	
C=C[C@]1(C)C[C@@H](OC(=O)CSCCOc2cc(=O)oc3ccc(F)cc23)[C@]2(C)[C@H](C)CC[C@]3(CCC(=O)[C@H]32)[C@@H](C)[C@@H]1O	0.5 (≈ 0.832 µM)	0.5 (≈ 0.832 µM)	0.125 (≈ 0.208 µM)	8 (≈ 13.3 µM)	1 (≈ 1.66 µM)	1 (≈ 1.66 µM)	1 (≈ 1.66 µM)	>4	>4	4	>4	>4		
C=C[C@]1(C)C[C@@H](OC(=O)CSc2cc(=O)oc3cc(F)ccc23)[C@]2(C)[C@H](C)CC[C@]3(CCC(=O)[C@H]32)[C@@H](C)[C@@H]1O	0.031 (≈ 0.0557 µM)	0.063 (≈ 0.113 µM)	0.031 (≈ 0.0557 µM)	0.031 (≈ 0.0557 µM)	0.031 (≈ 0.0557 µM)	0.125 (≈ 0.225 µM)	0.063 (≈ 0.113 µM)	4	>4	1	1	2	4	MIC (Staphylococcus aureus [15]): 0.031 µg/mL (≈ 0.0557 µM); MIC (Staphylococcus aureus [16]): 0.063 µg/mL (≈ 0.113 µM); MIC (Staphylococcus aureus [17]): 0.063 µg/mL (≈ 0.113 µM); MIC [18]: 0.063 µg/mL (≈ 0.113 µM); MIC [19]: 0.125 µg/mL (≈ 0.225 µM); MIC (Enterococcus faecium [20]): 0.031 µg/mL (≈ 0.0557 µM); Ratio (Staphylococcus aureus [21]): 2; Ratio [22]: 2; Ratio (Enterococcus faecium [23]): 1
C=C[C@]1(C)C[C@@H](OC(=O)CSCCOc2cc(=O)oc3ccc([N+](=O)[O-])cc23)[C@]2(C)[C@H](C)CC[C@]3(CCC(=O)[C@H]32)[C@@H](C)[C@@H]1O	0.125 (≈ 0.199 µM)	0.125 (≈ 0.199 µM)	0.031 (≈ 0.0494 µM)	0.25 (≈ 0.398 µM)	0.063 (≈ 0.1 µM)	0.063 (≈ 0.1 µM)	0.063 (≈ 0.1 µM)	>4	>4	2	2	2	>4	
